Experimental data taken from paper PMC6804443 (Acta Pharmaceutica Sinica. B, 2019).
Starred links: 1 amine or outer side, 2 acyl side, 3 side chain; linkers in the order of their positions; H or OH if unused. Positions of bridges follow the written chain, without caps; N, C: chain ends. Non-standard residues stand in square brackets, D forms with d. Residues, ends and D or L forms follow the SMILES beside them. *: point of attachment. hTyr(3S-OH,4S-OH,3'-OSO3H) = N[C@H](C(=O)O)[C@H](O)[C@@H](O)c1ccc(O)c(OS(=O)(=O)O)c1; Orn(4R-OH,5R-OH) = O=C([C@H](C[C@@H](O)[C@@H](O)N[*:3])N[*:1])[*:2]; Pro(3S-OH,4S-Me) = C[C@H]1CN[C@H](C(=O)O)[C@H]1O; X1 = CCCCCOc1ccc(-c2cc(-c3ccc(C(=O)*)cc3)no2)cc1; Gln(3R-OH) = NC(=O)C[C@@H](O)[C@H](N)C(=O)O; Hyp = O=C(O)[C@@H]1C[C@@H](O)CN1

Experiments:
UGT2B15 = target: T1, UGT2B15 (Homo sapiens, UniProt P54855); type: in vitro ADME
T1 sequence (P54855 24-530): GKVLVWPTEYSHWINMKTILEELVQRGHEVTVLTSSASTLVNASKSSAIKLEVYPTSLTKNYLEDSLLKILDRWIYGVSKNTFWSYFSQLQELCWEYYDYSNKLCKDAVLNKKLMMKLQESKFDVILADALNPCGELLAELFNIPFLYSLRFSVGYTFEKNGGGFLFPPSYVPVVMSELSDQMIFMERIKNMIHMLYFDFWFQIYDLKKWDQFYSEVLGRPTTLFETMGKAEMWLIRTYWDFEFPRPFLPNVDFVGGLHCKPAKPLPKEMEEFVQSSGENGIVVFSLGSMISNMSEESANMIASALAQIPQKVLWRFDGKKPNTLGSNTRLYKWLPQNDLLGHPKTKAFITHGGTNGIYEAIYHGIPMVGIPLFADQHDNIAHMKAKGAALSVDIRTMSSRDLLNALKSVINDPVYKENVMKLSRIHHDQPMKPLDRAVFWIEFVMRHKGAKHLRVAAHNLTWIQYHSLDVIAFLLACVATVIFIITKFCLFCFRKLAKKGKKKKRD

ALDH = type: in vitro ADME; conditions: human, pooled human liver cytosol
OATP1B3 [1] = target: T2, OATP1B3 (Homo sapiens, UniProt Q9NPD5); conditions: IC50, OATP1B3 [X10], mean ± SD (n = 3)
T2 sequence (Q9NPD5 1-702): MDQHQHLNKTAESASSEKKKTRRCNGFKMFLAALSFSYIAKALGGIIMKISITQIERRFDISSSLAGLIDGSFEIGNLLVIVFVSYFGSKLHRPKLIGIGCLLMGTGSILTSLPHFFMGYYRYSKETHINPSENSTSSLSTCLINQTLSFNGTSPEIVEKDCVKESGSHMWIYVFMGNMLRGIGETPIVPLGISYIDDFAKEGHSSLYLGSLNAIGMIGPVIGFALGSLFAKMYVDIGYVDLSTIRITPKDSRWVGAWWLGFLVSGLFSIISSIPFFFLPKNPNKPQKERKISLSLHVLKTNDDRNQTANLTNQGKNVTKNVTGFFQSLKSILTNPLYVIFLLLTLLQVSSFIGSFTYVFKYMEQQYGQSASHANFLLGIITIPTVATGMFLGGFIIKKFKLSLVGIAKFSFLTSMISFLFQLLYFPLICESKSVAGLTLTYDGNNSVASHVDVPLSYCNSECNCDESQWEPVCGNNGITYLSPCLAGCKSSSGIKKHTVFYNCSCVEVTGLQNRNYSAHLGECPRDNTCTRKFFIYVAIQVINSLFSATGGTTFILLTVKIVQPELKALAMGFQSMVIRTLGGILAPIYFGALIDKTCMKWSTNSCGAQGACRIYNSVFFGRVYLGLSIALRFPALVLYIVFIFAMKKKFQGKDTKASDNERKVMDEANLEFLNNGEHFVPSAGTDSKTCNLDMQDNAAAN

OATP1B3 [2] = target: T2, OATP1B3; conditions: antibiotic as perpetrator, salvianolic acid B (X10) as victim; (Cmax × fu-p × R)/IC50
OATP1B3 [3] = target: T2, OATP1B3; assay: in vitro
OAT2 = target: T3, OAT2 (Homo sapiens, UniProt Q9Y694); assay: OAT2 inhibition by antibiotics, transfected HEK293 cells, tanshinol as substrate; type: in vitro ADME; conditions: for inhibition at 100 µM: HEK293, read-out: Inhibition of OAT2
T3 sequence (Q9Y694 1-546 isoform Q9Y694-2): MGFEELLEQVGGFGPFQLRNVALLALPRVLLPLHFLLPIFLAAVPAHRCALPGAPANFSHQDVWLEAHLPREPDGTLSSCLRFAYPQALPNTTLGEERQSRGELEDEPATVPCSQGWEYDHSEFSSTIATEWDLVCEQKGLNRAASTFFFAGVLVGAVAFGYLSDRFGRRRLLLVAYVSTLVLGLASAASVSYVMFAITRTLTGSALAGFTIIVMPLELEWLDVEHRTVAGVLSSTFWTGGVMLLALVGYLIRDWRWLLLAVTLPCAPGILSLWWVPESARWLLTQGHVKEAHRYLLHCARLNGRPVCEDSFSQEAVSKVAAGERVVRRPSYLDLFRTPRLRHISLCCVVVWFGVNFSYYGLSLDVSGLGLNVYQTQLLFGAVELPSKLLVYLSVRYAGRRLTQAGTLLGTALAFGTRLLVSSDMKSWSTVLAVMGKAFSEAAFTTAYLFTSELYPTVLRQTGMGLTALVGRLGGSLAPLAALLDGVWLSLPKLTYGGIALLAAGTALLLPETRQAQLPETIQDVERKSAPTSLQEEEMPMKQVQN

OAT1 = target: T4, OAT1 (Homo sapiens, UniProt Q4U2R8); assay: OAT1 inhibition by antibiotics, transfected HEK293 cells, tanshinol as substrate; conditions: for inhibition at 100 μmol/L: human
T4 sequence (Q4U2R8 1-563): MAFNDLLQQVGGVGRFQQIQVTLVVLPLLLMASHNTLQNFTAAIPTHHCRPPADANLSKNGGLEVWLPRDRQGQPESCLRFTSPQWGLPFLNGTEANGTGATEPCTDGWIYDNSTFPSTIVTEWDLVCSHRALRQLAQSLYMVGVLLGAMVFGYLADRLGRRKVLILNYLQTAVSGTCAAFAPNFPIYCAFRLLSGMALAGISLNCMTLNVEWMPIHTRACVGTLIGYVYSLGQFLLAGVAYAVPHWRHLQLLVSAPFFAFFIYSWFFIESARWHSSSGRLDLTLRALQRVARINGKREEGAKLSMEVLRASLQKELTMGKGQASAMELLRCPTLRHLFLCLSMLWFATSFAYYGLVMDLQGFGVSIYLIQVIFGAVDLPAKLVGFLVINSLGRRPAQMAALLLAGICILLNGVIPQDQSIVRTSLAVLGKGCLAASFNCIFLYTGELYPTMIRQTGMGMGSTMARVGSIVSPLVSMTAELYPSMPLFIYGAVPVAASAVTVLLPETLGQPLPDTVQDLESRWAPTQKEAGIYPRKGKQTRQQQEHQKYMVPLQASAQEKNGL

IC50 (OATP1B3 [1]) [µM]	Inhibition DDI index, OATP1B3 (OATP1B3 [2])	inhibition at 100 μmol/L (OATP1B3 [3]) [%]	Structure (SMILES)	IC50 (UGT2B15) [µM]	further results
26 ± 19	2.81	–	CO[C@@]1(NC(=O)Cc2cccs2)C(=O)N2C(C(=O)O)=C(COC(N)=O)CS[C@@H]21 [A20, cefoxitin]	57 ± 11	Inhibition DDI index, UGT2B15 (UGT2B15; antibiotic as perpetrator, senkyunolide I (X5) as victim, (Cmax × fu-p × R)/IC50): 1.28; inhibition at 1000 μmol/L (UGT2B15; human, cDNA-expressed UGT2B15): ≥ 90%; IC50 (ALDH): 983 ± 117 µM; inhibition at 1000 μmol/L (ALDH): 56 to 88%; inhibition at 1000 μmol/L (OATP1B3 [3]): > 90%
–	–	–	C[C@H]1COc2c(N3CCN(C)CC3)c(F)cc3c(=O)c(C(=O)O)cn1c23 [A31, levofloxacin]	–	IC50 (OAT2): 50 ± 9 µM; inhibition at 100 µM (OAT2): 60 to 84%; Inhibition DDI index, OAT2 (OAT2; antibiotic as perpetrator, tanshinol (X8) as victim, (Cmax × fu-p × R)/IC50): 0.36
17 ± 2	–	64 to 88	COc1c(N2C[C@@H]3CCCN[C@@H]3C2)c(F)cc2c(=O)c(C(=O)O)cn(C3CC3)c12 [A33, moxifloxacin]	–	–
3 ± 1	0.35–1.04	> 90	CC[C@H]1OC(=O)[C@H](C)[C@@H](O[C@H]2C[C@@](C)(OC)[C@@H](O)[C@H](C)O2)[C@H](C)[C@@H](O[C@@H]2O[C@H](C)C[C@H](N(C)C)[C@H]2O)[C@](C)(O)C[C@@H](C)C(=O)[C@H](C)[C@@H](O)[C@]1(C)O [A34, erythromycin]	–	–
2	–	> 90	CO[C@H]1/C=C/O[C@@]2(C)Oc3c(C)c(O)c4c(O)c(c(/C=N/N5CCN(C)CC5)c(O)c4c3C2=O)NC(=O)/C(C)=C\C=C\[C@H](C)[C@H](O)[C@@H](C)[C@@H](O)[C@@H](C)[C@H](OC(C)=O)[C@@H]1C [A39, rifampin]	–	–
1	–	64 to 88	C[C@@H]1[C@H](O)[C@@H](C)/C=C/C=C/C=C/C=C/C=C/C=C/C=C/[C@H](O[C@@H]2O[C@H](C)[C@@H](O)[C@H](N)[C@@H]2O)C[C@@H]2O[C@](O)(C[C@@H](O)C[C@@H](O)[C@H](O)CC[C@@H](O)C[C@@H](O)CC(=O)O[C@H]1C)C[C@H](O)[C@H]2C(=O)O [A42, amphotericin B]	–	IC50 (ALDH): 87 ± 9 µM; inhibition at 100 μmol/L (ALDH): 56 to 88%
4 ± 1	–	64 to 88	CCC(C)n1ncn(-c2ccc(N3CCN(c4ccc(OCC5COC(Cn6cncn6)(c6ccc(Cl)cc6Cl)O5)cc4)CC3)cc2)c1=O (stereo not drawn) [A44, itraconazole]	–	–

Structure (SMILES)	IC50 (OATP1B3 [1]) [µM]	Inhibition DDI index, OATP1B3 (OATP1B3 [2])	inhibition at 100 μmol/L (OATP1B3 [3]) [%]	IC50 (UGT2B15) [µM]	further results
CCCCCOc1ccc(-c2cc(-c3ccc(C(=O)N[C@H]4C[C@@H](O)[C@@H](O)NC(=O)[C@@H]5[C@@H](O)[C@@H](C)CN5C(=O)[C@H]([C@H](O)CC(N)=O)NC(=O)[C@H]([C@H](O)[C@@H](O)c5ccc(O)c(OS(=O)(=O)O)c5)NC(=O)[C@@H]5C[C@@H](O)CN5C(=O)[C@H]([C@@H](C)O)NC4=O)cc3)no2)cc1 [A40, micafungin] (X1-[Orn(4R-OH,5R-OH)]T[Hyp][hTyr(3S-OH,4S-OH,3'-OSO3H)][Gln(3R-OH)][Pro(3S-OH,4S-Me)]; lactam 1-C)	3 ± 1	–	> 90	3	inhibition at 100 μmol/L (UGT2B15; human, cDNA-expressed UGT2B15): ≥ 90%; IC50 (OAT2): 26 ± 2 µM; inhibition at 100 µM (OAT2): > 90%; IC50 (OAT1): 43 ± 4 µM; inhibition at 100 μmol/L (OAT1): ≥ 90%
CC[C@H](C)C[C@H](C)CCCCCCCCC(=O)N[C@H]1C[C@@H](O)[C@@H](NCCN)NC(=O)[C@@H]2[C@@H](O)CCN2C(=O)[C@H]([C@H](O)CCN)NC(=O)[C@H]([C@H](O)[C@@H](O)c2ccc(O)cc2)NC(=O)[C@@H]2C[C@@H](O)CN2C(=O)[C@H]([C@@H](C)O)NC1=O [A41, caspofungin]	1	0.35	> 90	39 ± 2	inhibition at 100 μmol/L (UGT2B15; human, cDNA-expressed UGT2B15): 60 to 88%; IC50 (OAT1): 7 ± 2 µM; inhibition at 100 μmol/L (OAT1): 63 to 88%
